The source of these data is patent US7141249B2, “Rapidly soluble drug composition” (Dainippon Sumitomo Pharma Co., Ltd., priority 1997, dated 2006).

Data set [1] in a line: Plasma concentration after administration. The class given is in vivo. The settings on record: among the individuals to be administered.
A short description of data set [2]: Water-solubility of AS-3201. The class given is physicochemical. The settings on record: in the range of low pH. The text has this:
The “micronized AS-3201” means powders of AS-3201 having a mean particle size of less than about 20 μm. The “mean particle size” means a particle size of being at 50% in cumulative particle distribution on weight or volume basis (ref., HA Lieberman et al., “Pharmaceutical Dosage Forms: Tablets”, Marcel Dekker, Inc., New York, 1990, vol. 2, 174–186; Kouichi IINOYA (edit.) “Handbook of Powder and Particle Measurement (in Japanese)”, The NIKKAN KOGYO SHINBUN LTD., 1981, 29–36). The “dissolution test” means a test in which the dissolution of AS-3201 from test pharmaceutical compositions in an amount corresponding to 20 mg of AS-3201 is evaluated according to Paddle method (50 rpm) specified in the Twelfth Edition of the Pharmacopoeia of Japan, using a 0.2 M phosphate buffer (pH 6.5, 900 ml) as a test solution, and assaying AS-3201 by spectrophotometry at 300 nm. The “pKa1” means an acid dissociation exponent of an acidic substance at 25° C. in an infinitely diluted solution thereof. When an acidic substance is a polybasic acid, it means an acid dissociation exponent at the first step of dissociation. The “water-solubility” means a maximum amount of a solute being dissolved in 100 ml of water. The term “about” is used with the intention of including values following said term.

The next data set can be described thus: Acidity (pKa) of AS-3201. Format: physicochemical.
The target in the next data set is aldose reductase (Homo sapiens, UniProt P15121). The settings on record: disclosed in earlier patents (U.S. Pat. No. 5,258,382, JP-A-6-192222, JP-A-8-176105); cited from earlier work.

The pKa is the pH at which an ionisable group is half protonated.

In the case of `O=C1C[C@@]2(C(=O)N1)C(=O)N(Cc1ccc(Br)cc1F)C(=O)c1cccn12` [AS-3201, (R)-2-(4-bromo-2-fluorobenzyl)-1,2,3,4-tetrahydropyrrolo[1,2-a]pyrazine-4-spiro-3′-pyrrolidine-1,2′,3,5′-tetrone], the “plasma concentration of AS-3201 (variation among individuals)” value in data set [1] is listed as “varies widely”. Moreover, in data set [2], the water-solubility entry is given as “several”. The molecule also yielded a pKa in “Acidity (pKa) of AS-3201” of 5.6 to 5.8. Further, the “aldose reductase inhibitory activity” value on aldose reductase is recorded as “potent”.
